Assay [1] relates to non-heart-beating liver transplantation in Lewis rats. Put plainly: Non-heart-beating donor liver transplantation, graft necrosis (H+E). As to conditions: 30-min aorta clamping, 4-hour cold storage; grafts harvested 18 h after implantation. It counts as in vivo. The source says:
ABC294640 improves the outcome of non-heart-beating liver transplantation. The severe donor organ shortage could be reduced by the use of marginal livers for transplantation. Currently only livers from brain-dead, heart-beating donors (HBD) are used for transplantation since liver grafts from non-heart-beating donors frequently fail after transplantation. Development of a method to improve survival of grafts from NHBD is critical to expand the usable liver donor pool. Grafts from NHBD experience longer warm ischemia before liver retrieval, which likely upregulates SK to a higher extent compared to those from HBD. Therefore, we performed a pilot study to test if ABC294640 improves the outcome of non-heart-beating liver transplantation. Livers were explanted from Lewis rats after 30-min of aorta clamping to mimic non-heart-beating donation and implanted after 4-hour storage in UW solution at 0-1° C. […] In cold-stored, untransplanted livers from NHBD, although some cell swelling was observed, no necrosis occurred (FIG. 19, upper right). After transplantation of livers from HBD, small focal necrosis occurred (FIG. 19, middle left). […] Necrotic areas in sections were quantified by image analysis using an Image-1/AT image acquisition and analysis system (Universal Imaging Corp., West Chester, Pa.) incorporating an Axioskop 50 microscope (Carl Zeiss, Inc., Thornwood, NY) and a 10× objective lens.

Assay [2] concerns mitochondrial depolarization in hepatocytes. Put plainly: Intravital multiphoton microscopy of mitochondrial depolarization (Rh123/PI) after hepatic IR. The class given is in vivo, mice. As to conditions: 1 h of ischemia and 2 h of reperfusion. The source says: MPT onset is an important mechanism leading to cell death due to mitochondrial depolarization. […] There are two main advantages of multiphoton microscopy: 1) Red/infrared light penetrates deeper than visible light into solid tissues allowing visualization of tissue planes as deep as 1 mm into thick specimens. […] Therefore, the viability of thick living specimens is maintained much longer with multiphoton microscopy (Lemasters 2000). These advantages make multiphoton microscopy a powerful tool for studying mitochondrial function in live animals.
Following 1 h-ischemia and […], rhodamine-123 (Rh123), a cationic fluorophore that is taken up by polarized mitochondria, and propidium iodine (PI) that labels the nuclei of non-viable cells were infused and intravital multiphoton imaging of livers was performed. […]
Imaging of fluorescent probes Rh123, PI and calcein in vivo was achieved using a Zeiss LSM 510 laser scanning multiphoton microscope system using IR excitation of 800-900 nm from a Coherent Chameleon tunable Ti-Sapphire femtosecond pulsed laser, which excites both red- and green-fluorescing (rhodamine- and fluorescein-like) fluorophores. For calcein fluorescence, excitation of 720-nm was used.

The subject of assay [3] is phosphorylated p65 subunit of NF-κB. The assay is described as follows: Phosphorylated p65 NF-κB immunoblot after hepatic warm IR. As to conditions: livers harvested 2 h after IR. It counts as in vivo, mice. The method, then: ABC294640 prevents hepatic warm IR-induced tumor necrosis factor-α (TNFα) formation and NF-κB activation. Toxic cytokine formation and inflammatory processes play important roles in IR injury, and S1P is well known to promote inflammation. Accordingly, we investigated whether ABC294640 affects the expression of the pro-inflammatory cytokine TNFα after IR. Livers were harvested at 2 h after reperfusion and TNFα mRNA was detected by quantitative real time PCR. TNFα mRNA increased ˜10-fold after IR (FIG. 15, upper). ABC294640 blunted this increase in TNFα mRNA by ˜50%. NF-κB activation is involved in inflammatory cytokine formation and upregulation of adhesion molecules. After IR, phosphorylation of p65 subunit of NF-κB increased markedly, indicating NF-κB activation. This effect was also blunted by ABC294640 (FIG. 15 lower) which is consistent with our previous studies of NF-κB activation. Western blotting: Briefly, liver tissue was homogenized in a 0.1% Triton-X100 buffer containing a protease inhibitor cocktail, and the extract was centrifuged at 12,000×g for 10 min at 4° C. […] Expression of the protein of interest was quantified by the density of Western blot images by densitometry and standardized by house keeping gene actin.
(A western blot detects proteins with antibodies after separation by electrophoresis.)

Entries after “also recorded” stand apart in the source; their conditions may differ.

Turning to `O=C(NCc1ccncc1)C12CC3CC(C1)CC(c1ccc(Cl)cc1)(C3)C2` [ABC294640, 3-(4-chlorophenyl)-N-(pyridin-4-ylmethyl)adamantane-1-carboxamide], in assay [1], the “necrotic areas in transplanted livers from non-heart-beating donors” value is listed as “substantially decreased; also recorded: attenuates necrosis”. In assay [2], the “mitochondrial depolarization after hepatic IR (in words)” value is “rare and largely prevented and prevents mitochondrial depolarization”. In addition, in assay [2] (Rh123), the “hepatocytes with mitochondrial depolarization” value is reported as 17%. Besides, the “phosphorylation of p65 subunit of NF-κB (NF-κB activation)” value in assay [3] is on record as “blunts”.

These data come from patent US20120122870A1, “Treatment Of Ischemia-Reperfusion Injury” (MUSC FOUNDATION FOR RESEARCH DEVELOPMENT, priority 2009, published 2012).
